Assay results: publication PMC5218480 (PLoS ONE, 2017)

System: MV-4-11 cells
Assay: Gene expression microarray analysis (Affymetrix PrimeView) and GSEA
Type: cell-based, human
Design: RFU PODN (11730768_x_at) / Fold change /veh PODN (11730768_x_at) / RFU LINC00158 (11744669_a_at) / Fold change /veh LINC00158 (11744669_a_at) / RFU DUSP10 (11751237_a_at) / Fold change /veh DUSP10 (11751237_a_at) / RFU ID3 (11757404_x_at) / Fold change /veh ID3 (11757404_x_at) / RFU PLEKHG5 (11737974_s_at) / Fold change /veh PLEKHG5 (11737974_s_at) / RFU LRRC4B (11730491_at) / Fold change /veh LRRC4B (11730491_at) / RFU GIMAP4 (11747438_a_at) / Fold change /veh GIMAP4 (11747438_a_at) / RFU KRT8 (11758183_x_at) / Fold change /veh KRT8 (11758183_x_at) / RFU CNN1 (11734310_a_at) / Fold change /veh CNN1 (11734310_a_at) / RFU VPS37D (11726825_at) / Fold change /veh VPS37D (11726825_at) / RFU C10orf10 (11716522_x_at) / Fold change /veh C10orf10 (11716522_x_at) / RFU KIR2DL2 /// KIR2DL4 /// KIR2DL5A /// KIR2DL5B /// KIR2DS1 /// KIR2DS2 /// KIR2DS3 /// KIR2DS4 /// KIR3DL3 /// KIR3DL3 /// KIR3DS1 (11738374_at) / Fold change /veh KIR2DL2 /// KIR2DL4 /// KIR2DL5A /// KIR2DL5B /// KIR2DS1 /// KIR2DS2 /// KIR2DS3 /// KIR2DS4 /// KIR3DL3 /// KIR3DL3 /// KIR3DS1 (11738374_at) / RFU C1QL1 (11718748_at) / Fold change /veh C1QL1 (11718748_at) / RFU TMPRSS4 (11747572_a_at) / Fold change /veh TMPRSS4 (11747572_a_at) / RFU HAMP (11756126_x_at) / Fold change /veh HAMP (11756126_x_at) / RFU RNFT2 (11725882_a_at) / Fold change /veh RNFT2 (11725882_a_at) / RFU NR4A2 (11747474_a_at) / Fold change /veh NR4A2 (11747474_a_at) / RFU ABCC12 (11746883_a_at) / Fold change /veh ABCC12 (11746883_a_at) / RFU TMEM136 (11760407_x_at) / Fold change /veh TMEM136 (11760407_x_at) / RFU CLDN22 /// WWC2 (11732394_at) / Fold change /veh CLDN22 /// WWC2 (11732394_at) / RFU HLA-DPB1 (11760878_x_at) / Fold change /veh HLA-DPB1 (11760878_x_at) / RFU SPINT1 (11716480_a_at) / Fold change /veh SPINT1 (11716480_a_at) / RFU GAP43 (11754022_s_at) / Fold change /veh GAP43 (11754022_s_at) / RFU A4GNT (11735810_at) / Fold change /veh A4GNT (11735810_at) / RFU PRB3 (11715151_x_at) / Fold change /veh PRB3 (11715151_x_at) / RFU TUBB4B (11761932_at) / Fold change /veh TUBB4B (11761932_at) / RFU CAPN14 (11732068_a_at) / Fold change /veh CAPN14 (11732068_a_at) / RFU TMCC2 (11721928_a_at) / Fold change /veh TMCC2 (11721928_a_at) / RFU IRGQ (11745062_a_at) / Fold change /veh IRGQ (11745062_a_at) / RFU FAM174B (11720279_a_at) / Fold change /veh FAM174B (11720279_a_at) / RFU TMPRSS4 (11748680_a_at) / Fold change /veh TMPRSS4 (11748680_a_at) / RFU FAM212B (11763350_a_at) / Fold change /veh FAM212B (11763350_a_at) / RFU PLEKHG5 (11743358_a_at) / Fold change /veh PLEKHG5 (11743358_a_at) / RFU ZSCAN30 (11745921_a_at) / Fold change /veh ZSCAN30 (11745921_a_at) / RFU CMKLR1 (11741424_a_at) / Fold change /veh CMKLR1 (11741424_a_at) / RFU LOC101060620 /// MAPK8IP1 (11723275_at) / Fold change /veh LOC101060620 /// MAPK8IP1 (11723275_at) / RFU SPTSSB (11747773_x_at) / Fold change /veh SPTSSB (11747773_x_at) / RFU PRSS12 (11739890_at) / Fold change /veh PRSS12 (11739890_at) / RFU BIN1 (11741810_x_at) / Fold change /veh BIN1 (11741810_x_at) / RFU WNT11 (11732464_a_at) / Fold change /veh WNT11 (11732464_a_at) / RFU C10orf10 (11716521_a_at) / Fold change /veh C10orf10 (11716521_a_at) / RFU C5orf56 (11738089_at) / Fold change /veh C5orf56 (11738089_at) / RFU CYB561 (11721691_x_at) / Fold change /veh CYB561 (11721691_x_at) / RFU ANKRD19P (11752326_a_at) / Fold change /veh ANKRD19P (11752326_a_at) / RFU OR2T12 /// OR2T33 /// OR2T8 (11738714_s_at) / Fold change /veh OR2T12 /// OR2T33 /// OR2T8 (11738714_s_at) / RFU VCAN (11748164_a_at) / Fold change /veh VCAN (11748164_a_at) / RFU JSRP1 (11732532_at) / Fold change /veh JSRP1 (11732532_at) / RFU KRTAP10-11 (11738290_x_at) / Fold change /veh KRTAP10-11 (11738290_x_at) / RFU MYO3A (11730013_a_at) / Fold change /veh MYO3A (11730013_a_at) / RFU EBF3 (11725865_a_at) / Fold change /veh EBF3 (11725865_a_at) / RFU CAMK2N1 (11719241_x_at) / Fold change /veh CAMK2N1 (11719241_x_at) / RFU C5orf56 (11738088_a_at) / Fold change /veh C5orf56 (11738088_a_at) / RFU OLFML3 (11715873_a_at) / Fold change /veh OLFML3 (11715873_a_at) / RFU LOC100653217 /// NTM (11731650_a_at) / Fold change /veh LOC100653217 /// NTM (11731650_a_at) / RFU MAPK11 (11762145_a_at) / Fold change /veh MAPK11 (11762145_a_at) / RFU FIZ1 (11724087_x_at) / Fold change /veh FIZ1 (11724087_x_at) / RFU OASL (11726364_x_at) / Fold change /veh OASL (11726364_x_at) / RFU SOX15 (11748057_x_at) / Fold change /veh SOX15 (11748057_x_at) / RFU CD79A (11719716_a_at) / Fold change /veh CD79A (11719716_a_at) / RFU HIST1H1D (11736915_at) / Fold change /veh HIST1H1D (11736915_at) / RFU CASKIN2 (11723855_a_at) / Fold change /veh CASKIN2 (11723855_a_at) / RFU LOC730098 (11760151_x_at) / Fold change /veh LOC730098 (11760151_x_at) / RFU OR4N2 (11742367_at) / Fold change /veh OR4N2 (11742367_at) / RFU PRRT2 (11749266_a_at) / Fold change /veh PRRT2 (11749266_a_at) / RFU SNX32 (11753110_a_at) / Fold change /veh SNX32 (11753110_a_at) / RFU CDHR5 (11726645_a_at) / Fold change /veh CDHR5 (11726645_a_at) / RFU RCAN1 (11760418_a_at) / Fold change /veh RCAN1 (11760418_a_at) / RFU FAM167A (11723789_a_at) / Fold change /veh FAM167A (11723789_a_at) / RFU FAM26E (11764081_at) / Fold change /veh FAM26E (11764081_at) / RFU ISYNA1 (11749810_s_at) / Fold change /veh ISYNA1 (11749810_s_at) / RFU ACY1 (11761880_at) / Fold change /veh ACY1 (11761880_at) / RFU 11764098_at / Fold change /veh 11764098_at / RFU SAMD14 (11745864_x_at) / Fold change /veh SAMD14 (11745864_x_at) / RFU NPB (11741838_a_at) / Fold change /veh NPB (11741838_a_at) / RFU TMPRSS6 (11731388_a_at) / Fold change /veh TMPRSS6 (11731388_a_at) / RFU KRTAP10-2 (11738614_at) / Fold change /veh KRTAP10-2 (11738614_at) / RFU ARHGAP8 /// PRR5-ARHGAP8 (11727945_x_at) / Fold change /veh ARHGAP8 /// PRR5-ARHGAP8 (11727945_x_at) / RFU KRTAP5-7 /// NADSYN1 (11734609_at) / Fold change /veh KRTAP5-7 /// NADSYN1 (11734609_at) / RFU RASL12 (11751679_a_at) / Fold change /veh RASL12 (11751679_a_at) / RFU CDKN2B (11736163_a_at) / Fold change /veh CDKN2B (11736163_a_at) / RFU PRF1 (11729649_at) / Fold change /veh PRF1 (11729649_at) / RFU, ZNF638 /// ZNF638-IT1 / Fold change vs veh, ZNF638 /// ZNF638-IT1 / RFU, PANK3 / Fold change vs veh, PANK3 / RFU, SH3YL1 / Fold change vs veh, SH3YL1 / RFU, ZEB2 / Fold change vs veh, ZEB2 / RFU, NRIP1 / Fold change vs veh, NRIP1 / RFU, PTTG1IP / Fold change vs veh, PTTG1IP / RFU, CAPN2 / Fold change vs veh, CAPN2 / RFU, MED14 / Fold change vs veh, MED14 / RFU, SNORA58 / Fold change vs veh, SNORA58 / RFU, C1orf63 / Fold change vs veh, C1orf63 / RFU, LRRFIP1 / Fold change vs veh, LRRFIP1 / RFU, NDUFAF7 / Fold change vs veh, NDUFAF7 / RFU, SLC12A2 / Fold change vs veh, SLC12A2 / RFU, IBTK / Fold change vs veh, IBTK / RFU, ESF1 / Fold change vs veh, ESF1 / Fold change vs veh, TMEM50B / RFU, TAOK1 / Fold change vs veh, TAOK1 / RFU, ACBD3 / Fold change vs veh, ACBD3 / RFU, TMA16 / Fold change vs veh, TMA16 / RFU, RWDD3 / Fold change vs veh, RWDD3 / RFU, BCAT1 / Fold change vs veh, BCAT1 / RFU, EDEM3 / Fold change vs veh, EDEM3 / RFU, TMEM33 / Fold change vs veh, TMEM33 / RFU, WDR75 / Fold change vs veh, WDR75 / RFU, AHCTF1 / Fold change vs veh, AHCTF1 / RFU, TFRC / Fold change vs veh, TFRC / RFU, ZDHHC17 / Fold change vs veh, ZDHHC17 / RFU, NOM1 / Fold change vs veh, NOM1 / RFU, ARL8B / Fold change vs veh, ARL8B / RFU, ZBTB11 / Fold change vs veh, ZBTB11 / RFU, TAMM41 / Fold change vs veh, TAMM41 / RFU, KIAA1704 /// LOC100996395 / Fold change vs veh, KIAA1704 /// LOC100996395 / RFU, ING1 / Fold change vs veh, ING1 / RFU, TRMT61B / Fold change vs veh, TRMT61B / RFU, FUBP3 / Fold change vs veh, FUBP3 / RFU, TP53 / Fold change vs veh, TP53 / RFU, TNKS2 / Fold change vs veh, TNKS2 / RFU, ZFP14 / Fold change vs veh, ZFP14 / RFU, ACTR2 / Fold change vs veh, ACTR2 / RFU, PPP3R1 / Fold change vs veh, PPP3R1 / RFU, PIK3R1 / Fold change vs veh, PIK3R1 / RFU, HNRNPA1 / Fold change vs veh, HNRNPA1 / RFU, RNF170 / Fold change vs veh, RNF170 / RFU, ZNF28 / Fold change vs veh, ZNF28 / RFU, RNGTT / Fold change vs veh, RNGTT / RFU, OGT / Fold change vs veh, OGT / RFU, BRD1 / Fold change vs veh, BRD1 / RFU, MARS / Fold change vs veh, MARS / RFU, ZNF655 / Fold change vs veh, ZNF655 / RFU, FAHD1 / Fold change vs veh, FAHD1 / RFU, BDP1 / Fold change vs veh, BDP1 / RFU, LRRCC1 / Fold change vs veh, LRRCC1 / RFU, ARID1A / Fold change vs veh, ARID1A / RFU, ZNF146 / Fold change vs veh, ZNF146 / RFU, ZNF330 / Fold change vs veh, ZNF330 / RFU, GPN3 / Fold change vs veh, GPN3 / RFU, C9orf123 / Fold change vs veh, C9orf123 / RFU, N4BP2L2 / Fold change vs veh, N4BP2L2 / RFU, ARFIP1 / Fold change vs veh, ARFIP1 / RFU, FAM179B / Fold change vs veh, FAM179B / RFU, BCL10 / Fold change vs veh, BCL10 / RFU, UHRF1BP1L / Fold change vs veh, UHRF1BP1L / RFU, BET1 / Fold change vs veh, BET1 / RFU, CNOT2 / Fold change vs veh, CNOT2 / RFU, ZNF268 / Fold change vs veh, ZNF268 / Fold change vs veh, ZNF507 / RFU, DGCR2 / Fold change vs veh, DGCR2 / RFU, WDSUB1 / Fold change vs veh, WDSUB1 / Fold change vs veh, HSP90B1 /// MIR3652 / RFU, ADSS / Fold change vs veh, ADSS / RFU, GK / Fold change vs veh, GK / RFU, ZNF148 / Fold change vs veh, ZNF148 / RFU, TAF9 / Fold change vs veh, TAF9 / RFU, SLC1A5 / Fold change vs veh, SLC1A5 / RFU, SLMO2 / Fold change vs veh, SLMO2 / RFU, ABCC4 / Fold change vs veh, ABCC4 / RFU, LOC101060439 /// RAP1B / Fold change vs veh, LOC101060439 /// RAP1B / RFU, RFX7 / Fold change vs veh, RFX7 / RFU, GTPBP10 / Fold change vs veh, GTPBP10 / RFU, CNEP1R1 / Fold change vs veh, CNEP1R1 / RFU, BIVM-ERCC5 /// ERCC5 / Fold change vs veh, BIVM-ERCC5 /// ERCC5 / RFU, ILF3 / Fold change vs veh, ILF3 / RFU 11762660_at / Fold change /veh 11762660_at / RFU VCAN (11757783_s_at) / Fold change /veh VCAN (11757783_s_at) / RFU DDX43 (11728927_at) / Fold change /veh DDX43 (11728927_at) / RFU KRT8 (11758188_x_at) / Fold change /veh KRT8 (11758188_x_at) / RFU NKD1 (11759106_at) / Fold change /veh NKD1 (11759106_at) / RFU SRD5A1 (11742802_a_at) / Fold change /veh SRD5A1 (11742802_a_at) / RFU TPSAB1 /// TPSB2 (11721975_s_at) / Fold change /veh TPSAB1 /// TPSB2 (11721975_s_at) / RFU GSTM3 (11746129_a_at) / Fold change /veh GSTM3 (11746129_a_at) / RFU IL23R (11737362_x_at) / Fold change /veh IL23R (11737362_x_at) / RFU TMEM51 (11727254_a_at) / Fold change /veh TMEM51 (11727254_a_at) / RFU PIWIL2 (11732686_x_at) / Fold change /veh PIWIL2 (11732686_x_at) / RFU ORM1 (11744905_x_at) / Fold change /veh ORM1 (11744905_x_at) / RFU CCDC152 (11743942_at) / Fold change /veh CCDC152 (11743942_at) / RFU ECM1 (11717891_a_at) / Fold change /veh ECM1 (11717891_a_at) / RFU IL23R (11748794_a_at) / Fold change /veh IL23R (11748794_a_at) / RFU TNFAIP8L3 (11732012_x_at) / Fold change /veh TNFAIP8L3 (11732012_x_at) / RFU MBOAT4 (11741988_at) / Fold change /veh MBOAT4 (11741988_at) / RFU 11764193_at / Fold change /veh 11764193_at / RFU TMEM53 (11763286_at) / Fold change /veh TMEM53 (11763286_at) / RFU MAGEB2 (11727129_at) / Fold change /veh MAGEB2 (11727129_at) / RFU TMEM200A (11744735_a_at) / Fold change /veh TMEM200A (11744735_a_at) / RFU CCDC152 (11751479_a_at) / Fold change /veh CCDC152 (11751479_a_at) / RFU FAM211A (11726209_a_at) / Fold change /veh FAM211A (11726209_a_at) / RFU RGS16 (11746705_a_at) / Fold change /veh RGS16 (11746705_a_at) / RFU VCAN (11755009_s_at) / Fold change /veh VCAN (11755009_s_at) / RFU RHOB (11743442_s_at) / Fold change /veh RHOB (11743442_s_at) / RFU RGS16 (11720943_a_at) / Fold change /veh RGS16 (11720943_a_at) / RFU RGS16 (11720944_at) / Fold change /veh RGS16 (11720944_at) / RFU, VPS4B / Fold change vs veh, VPS4B / RFU, CREB1 / Fold change vs veh, CREB1 / RFU, DNAJC13 / Fold change vs veh, DNAJC13 / RFU, GNAQ / Fold change vs veh, GNAQ / RFU, CDK5R1 / Fold change vs veh, CDK5R1 / RFU, ZRANB3 / Fold change vs veh, ZRANB3 / RFU, CUL4A / Fold change vs veh, CUL4A / RFU, CCNY / Fold change vs veh, CCNY / RFU, UFL1 / Fold change vs veh, UFL1 / RFU, COG3 / Fold change vs veh, COG3 / RFU, DIAPH2 / Fold change vs veh, DIAPH2 / RFU, SKA2 / Fold change vs veh, SKA2 / RFU, AFF3 / Fold change vs veh, AFF3 / RFU, LMF1 / Fold change vs veh, LMF1 / RFU, IPO11 / Fold change vs veh, IPO11 / RFU, DFFB / Fold change vs veh, DFFB / RFU, FOXP1 / Fold change vs veh, FOXP1 / RFU, CARD8 / Fold change vs veh, CARD8 / RFU, STRN3 / Fold change vs veh, STRN3 / RFU, ADK / Fold change vs veh, ADK / RFU, RASSF2 / Fold change vs veh, RASSF2 / RFU, WIPF1 / Fold change vs veh, WIPF1 / RFU, LARP1B / Fold change vs veh, LARP1B / RFU, RASA1 / Fold change vs veh, RASA1 / RFU, RB1 / Fold change vs veh, RB1 / RFU, PPFIA1 / Fold change vs veh, PPFIA1 / RFU, MAT2A / Fold change vs veh, MAT2A / RFU, CCT5 / Fold change vs veh, CCT5 / RFU, WDR92 / Fold change vs veh, WDR92 / RFU, CUX1 / Fold change vs veh, CUX1 / RFU, TTC7A / Fold change vs veh, TTC7A / RFU, TMEM135 / Fold change vs veh, TMEM135 / RFU, DEPTOR / Fold change vs veh, DEPTOR / RFU, CPM / Fold change vs veh, CPM / RFU, DNAJB6 / Fold change vs veh, DNAJB6 / RFU, CACNA2D3 / Fold change vs veh, CACNA2D3 / RFU, DTX4 / Fold change vs veh, DTX4 / RFU, TFCP2 / Fold change vs veh, TFCP2 / RFU, GMCL1 /// GMCL1P1 / Fold change vs veh, GMCL1 /// GMCL1P1 / RFU, AEBP2 / Fold change vs veh, AEBP2 / RFU, SNHG1 /// SNORD22 /// SNORD25 /// SNORD26 /// SNORD27 /// SNORD28 /// SNORD29 /// SNORD31 / Fold change vs veh, SNHG1 /// SNORD22 /// SNORD25 /// SNORD26 /// SNORD27 /// SNORD28 /// SNORD29 /// SNORD31 / Fold change (Aza/veh), C12orf56 (ProbeSet 11735607_a_at) / Fold change (ACY-1035/veh), C12orf56 (ProbeSet 11735607_a_at) / Fold change (Aza/veh), FGFR1OP (ProbeSet 11751329_s_at) / Fold change (ACY-1035/veh), FGFR1OP (ProbeSet 11751329_s_at) / Fold change (Aza/veh), VPS36 (ProbeSet 11739960_a_at) / Fold change (ACY-1035/veh), VPS36 (ProbeSet 11739960_a_at) / RFU SYPL1 (11715823_x_at) / Fold change /veh SYPL1 (11715823_x_at) / RFU IGFBP7 (11715501_s_at) / Fold change /veh IGFBP7 (11715501_s_at) / RFU REEP3 (11722064_at) / Fold change /veh REEP3 (11722064_at) / RFU IGLL1 (11728026_x_at) / Fold change /veh IGLL1 (11728026_x_at): dose or concentration left out as unconfirmed
Conditions: MV-4-11 cells, 48 hours

With `Nc1ccc(-c2cccs2)cc1NC(=O)c1ccc2c(c1)cc(C1CC1)n2CCN1CCOCC1` [ACY-1035] the “Fold change /veh IL23R (11737362_x_at)” value was 1.14.
